20 compounds from PubChem BioAssay (NCI) can be followed below.

Assay in all cases: NCI anticancer screen, dose series, 48 h
The subject of test [1] is KM12 colon.
The test system of test [2] is SNB-19 CNS.
Test [3] relates to UACC-257 melanoma.
Test [4] deals with SF-295 CNS.
Test [5] deals with OVCAR-4 ovarian.
For test [6], the system named is A549 NSCLC.
Test [7] deals with M14 melanoma.
Test [8] relates to LOX IMVI melanoma.
In test [9] the test system is SNB-75 CNS.
Test [10] deals with OVCAR-5 ovarian.

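Tested at 5 concentrations; 48 h exposure; 96-well plates; endpoints linearly interpolated, else capped at highest concentration. Abbreviation: GI50, concentration required for 50% inhibition of growth. TGI is the concentration that stops growth completely.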 Some results are limits rather than exact numbers.

`COc1cc(/C=C2/Oc3c(OC)cccc3C2=O)ccc1O`: the TGI in test [1], in [2], in test [3], in test [4], in test [5] and in test [6] was > 100 µM each time. The TGI in test [7], in [8], in test [9] and in test [10] was > 100 µM each time.

For `CCN(CC)CCNc1ccc([N+](=O)[O-])c2sc3cc(Cl)ccc3c(=O)c12`, the GI50 in test [1] was 6.77 µM; in test [2], 2.77 µM; in test [3] it was 2.08 µM; in [4] it was 6.27 µM; in test [6], 2.89 µM; in test [7] it was 3.1 µM. In addition, the GI50 in test [8] was 2.8 µM. Also, the TGI is 53.6 µM in test [1]; > 100 µM in test [2]; 4.96 µM in test [3]; > 100 µM in test [4]; > 100 µM in test [6]; > 100 µM in test [7]. Also, the TGI in test [8] was > 100 µM.

For `NC(Cc1ccccc1CP(=O)(O)O)C(=O)O` (configuration not stated), the TGI in test [1], in test [2], in test [3], in test [4], in [5] and in test [6] was > 100 µM in each case. Moreover, the TGI in [7], in test [8], in test [9] and in [10] was > 100 µM each time.

`COc1ccc(CC[N+]2(C)COc3cc4oc(=O)cc(C)c4cc3C2)cc1OC` (configuration not stated): the TGI in [1], in [2], in [3], in test [4], in test [5] and in [6] was > 100 µM each time. Also, the TGI in test [7], in test [8], in test [9] and in [10] was > 100 µM throughout.

Regarding `C(=C\c1c2oc(-c3ccccc3)cc(-c3ccccc3)c-2c2ccccc12)/C=C1\c2ccccc2-c2c(-c3ccccc3)cc(-c3ccccc3)[o+]c21`, the TGI in test [2], in [3], in test [4], in test [5], in [6] and in [7] was > 100 µM each time. Further, the TGI in test [8], in [9] and in [10] was > 100 µM throughout.

For the compound `Cc1ccc(NCCN(C)C)c2c(=O)c3cc(O)ccc3sc12`, the TGI in test [1] worked out at 11.4 µM; in [2] it was 16.1 µM; in [3], 20.7 µM; in [4], 18.4 µM; in test [5] it was 14.1 µM; in [6], 8.08 µM. In addition, the TGI in [7] was found to be 10.4 µM; in test [8], 7.84 µM; in test [9] it was 9.24 µM; in test [10] it was 29.6 µM.

In the case of `Cc1ncc(CSC(=N)N)n1Cc1ccccc1`, the TGI in test [1], in [2], in [3], in test [4], in [5] and in test [6] was > 100 µM throughout. Moreover, the TGI in [7] and in test [10] was > 100 µM throughout.

Turning to `CCOC(=O)c1csc(NC(=O)C(C)N2CCOCC2)n1` (configuration not stated), the TGI in test [1], in [2], in [3], in [4], in test [5] and in [6] was > 100 µM in each case. Also, the TGI in [7], in [8], in test [9] and in [10] was > 100 µM each time.

As for `O=S(=O)(O)c1cc(O)c(N=Nc2ccc3ccccc3c2O)c2ccccc12`, the TGI in [1] was > 100 µM; in test [2] it was > 100 µM; in test [3] it was 66.7 µM; in test [4], > 100 µM; in test [5], > 100 µM; in [6], 52.6 µM. The figures for the TGI in [7], in [9] and in [10] were 41.4 µM, 79.1 µM and > 100 µM, respectively.

Take `c1cncc([O][Ge]([O]c2cccnc2)([O]c2cccnc2)[O]c2cccnc2)c1`: the GI50 in test [1], in test [2], in test [3], in [4], in test [5] and in [6] was > 100 µM each time. In addition, the GI50 in test [7] is > 100 µM; in test [8], 47.1 µM; in test [9], > 100 µM; in test [10], > 100 µM. The TGI in test [1], in test [2], in test [3], in [4], in [5] and in [6] was > 100 µM in each case. The TGI in test [7], in test [8], in test [9] and in [10] was > 100 µM throughout.

In the case of `CC(C)=CC(=O)c1c(C(=O)O)nc2ccccc2[n+]1[O-]`, the TGI in [1], in test [2], in test [3], in test [4], in [5] and in test [6] was > 100 µM in each case. For the same compound, the TGI in test [7], in test [8], in test [9] and in [10] was > 100 µM each time.

Take `CC(C)=CCC/C(C)=C/C=C/C(C)=C/C1C[C@@]2(C(O)O1)[C@H](CCCO)/C(=C(/C)C=O)CC[C@]2(C)O` (some centres not stated): the TGI in test [2] was 35.4 µM; in test [3] it was 56.5 µM; in test [4], 27.7 µM; in test [6], 25 µM; in test [7] it was 32.2 µM; in [8] it was 28 µM. The TGI in test [9] was 69.9 µM; in test [10], 55.6 µM.

`CC(=O)[C@]1(O)Cc2c(O)c3c(c(O)c2[C@@H](OC2CC(N)C(O)C(C)O2)C1)C(=O)c1c(OCc2ccccc2)cccc1C3=O` (some centres not stated): the TGI stood at 9.04 µM in test [2]; 11.1 µM in test [3]; 4.05 µM in test [4]; 9.36 µM in test [5]; 6.93 µM in test [6]; 2.89 µM in test [7]. In addition, the TGI in [9] worked out at 13.8 µM; in test [10], 5.12 µM.

`O=C(O)/C=C/c1ccncc1`: the TGI in [1], in [2], in test [3], in test [4], in [5] and in [7] was > 100 µM throughout. Also, the TGI in test [8], in [9] and in test [10] was > 100 µM in each case.

Take `COc1cc2c(cc1OCCCOc1ccc(-c3cc4ccccc4c4ccccc34)cc1)N=C[C@@H]1CCCN1C2=O`: the GI50 is 0.787 µM in [1]; 1.16 µM in test [2]; 1.57 µM in [3]; 0.815 µM in test [5]; 0.724 µM in test [6]; 1.02 µM in test [8]. Also, the values for the GI50 in [9] and in [10] were 0.261 µM and 0.487 µM, respectively. The TGI in [1] was 2.06 µM; in test [2], 2.37 µM; in [3], 3.1 µM; in test [5], 2.21 µM; in [6], 2.01 µM; in test [8], 2.19 µM. Moreover, the figures for the TGI in [9] and in test [10] were 1.41 µM and 0.995 µM, respectively.

Take `CC1(Cl)CC(C)(/C=C/Cl)C(Cl)CC1Cl` (configuration not stated): the TGI in test [1] worked out at 31.3 µM; in test [2] it was 31.4 µM; in [4] it was 28.5 µM; in test [5], 37.1 µM; in [6], 31.1 µM; in test [7], 31.2 µM. In addition, the results for the TGI in test [9] and in test [10] were 41.4 µM and 34.2 µM, respectively.

As to `C[n+]1c(-c2ccc(/C=N/NC(=O)C(=O)N/N=C/c3ccc(-c4cn5ccccc5[n+]4C)cc3)cc2)cn2ccccc21`, the TGI in [1], in test [2], in test [3], in test [5], in test [6] and in test [7] was > 100 µM each time. Further, the TGI in [9] and in [10] was > 100 µM each time.

With `Cc1ccc(NC(=O)C(=O)Cc2cccc[n+]2[O-])cc1C`, the TGI in test [1], in test [2], in [3], in test [4], in test [5] and in test [6] was > 100 µM in each case. In addition, the TGI in test [7], in [8], in test [9] and in test [10] was > 100 µM in each case.

Turning to `C/C(=N\NC(=S)N1CCOCC1)c1nc2ncccc2[nH]1`, the TGI is > 100 µM in [1]; 84.6 µM in test [2]; 77.4 µM in test [3]; 69.6 µM in [4]; > 100 µM in [5]; > 100 µM in test [6]. Further, the TGI was > 100 µM in test [7], > 100 µM in [8], 44.1 µM in test [9] and > 100 µM in [10].

Turning to `CC1CCCN1CCCOC(=O)c1ccc(OC2C=CCCC2)cc1` (configuration not stated), the TGI is > 100 µM in [1]; > 100 µM in test [2]; > 100 µM in [3]; 37.9 µM in test [4]; > 100 µM in [5]; > 100 µM in test [6]. The TGI in test [7] is 31.6 µM; in test [8], 36.7 µM; in test [9], 34.6 µM; in [10] it was > 100 µM.
